# Reference: patent US20040014215A1, “Synchronised arabidopsis cell suspensions and uses thereof” (priority 2000, published 2004)
# Assays:
# alfalfa-cell suspension = details: blocked with aphidicolin for 36 h and released; cited from earlier work
# [1] = tested on: Arabidopsis cell suspension culture; details: phosphate starvation 32 hours then aphidicolin, cited from earlier work
# CDK-a = experiment: Northern expression analysis after aphidicolin synchronisation of MM1 (maximum signal = 100%); assay type: cell-based, Arabidopsis thaliana
# Procedure: (§1) was analysed following the expression level of known cell cycle regulated genes. Synchronisation was performed as described in Example 2A, with the exception that two 7-day old cultures of the weekly sub-cultured cell suspension (210 ml each) were combined. 40 ml of combined culture was transferred into 200 ml of fresh MSS-medium in each of 10 separate flasks. After incubation for 24 hrs under conditions as described in Example 1, in the presence of 4.16 μg/ml aphidicolin, cells from 5 pooled flasks were washed through a nylon net (mesh size 47 μm) and washed with 2 litre MSS medium and shaken vigorously to remove the aphidicolin. Cells were transferred into a 50 ml plastic tube, washed again with MSS medium and centrifuged at 2500 rpm for 1 min (1075 rcf). Cells were resuspended and combined with the cells from the other 5 flasks similarly washed in a total volume of 300 ml fresh MSS-medium. 30 ml of this cell suspension was then added to 200 ml fresh MSS-medium in each of 10 separate flasks.
# (§2) 1) 25 ml for Northern blot (transferred into 50 ml plastic tube, centrifuged at 2500 rpm for 1 min, the supernatant discarded, and the cell pellet shock-frozen in liquid nitrogen before storing in −80° C. freezer)
# (§3) Samples were collected at the time point indicated (time of removal of aphidicolin equals time point 0 hrs) and were analysed for expression of the following genes by Northern blot:
# CDK-a (also called Cdc2a/CDK2a: Accession no. ATCDC2AP)
# (§4) For each probe the maximum hybridisation signal obtained was defined as 100%.
# [2] = tested on: Transgenic MM1-cycD2 cell lines; experiment: Aphidicolin block/release of transgenic MM1-cycD2 cell lines; assay type: cell-based, Arabidopsis thaliana; details: compared with non transgenic MM1 cell lines
# Procedure: To re-establish liquid cultures of putative transgenic MM1-calli, callus tissue was transferred to a 55 mm petridish, carefully squeezed with a pipet tip and resuspended in 10 ml fresh MSS-medium (0.5 mg/l NM, 0.05 mg/l kinetin, 100 μg/ml kanamycin). The callus derived cell suspensions were incubated at 120 rpm, 23° C. under continuous light conditions in 100 ml Erlenmeyer flasks. After 10 days cultivation, 10 ml MSS-medium (0.5 mg/l NM, 0.05 mg/l kinetin) was added to the suspension cultures and left for further 7 days under conditions as above. 5 ml putative transgenic cell suspension was subcultured into 50 ml fresh MSS-medium (0.5 mg/l NM, 0.05 mg/l kinetin, 100 μg/ml kanamycin). This subculturing procedure was repeated twice at 7 days intervals in the same medium. Subsequent subculturing was carried out weekly into fresh MSS-medium (0.5 mg/l NAA, 0.05 mg/l kinetin without kanamycin selection), adjusting the transferred volume of cells to produce an inoculum of approximately the same as WT-MM1 culture. In the example of putative transgenic MM1-cycD2 cell suspensions, these were maintained by subculturing weekly 3.5 ml into 100 ml fresh MSS-medium (0.5 mg/l NAA, 0.05 mg/l kinetin) in 300 ml Erlenmeyer flasks. […] Putative transgenic calli or the suspension cultures thereof were analyzed using PCR and appropriate primers allowing to detect the cycD2 coding region. […]
# CycD3 = experiment: Northern expression analysis after aphidicolin synchronisation of MM1 (maximum signal = 100%); assay type: cell-based, Arabidopsis thaliana
# Procedure: as §1, §2, §3, §4
# [3] = 0 hrs after aphidicolin removal
# [4] = 2 hrs after aphidicolin removal
# [5] = 4 hrs after aphidicolin removal
# [6] = 6 hrs after aphidicolin removal
# [7] = 8 hrs after aphidicolin removal
# [8] = 10 hrs after aphidicolin removal
# [9] = 12 hrs after aphidicolin removal
# [10] = 14 hrs after aphidicolin removal
# [11] = 16 hrs after aphidicolin removal
# [12] = 18 hrs after aphidicolin removal
# [13] = 20 hrs after aphidicolin removal
# [14] = 22 hrs after aphidicolin removal
# [15] = 24 hrs after aphidicolin removal
# [16] = 26 hrs after aphidicolin removal
# [17] = 28 hrs after aphidicolin removal
# [18] = 30 hrs after aphidicolin removal
compound,measurement,setting,value
C[C@@]1(CO)[C@H](O)CC[C@@]2(C)[C@H]1CC[C@H]1C[C@@H]3C[C@@]12CC[C@]3(O)CO [aphidicolin],peak mitotic index,alfalfa-cell suspension,up to 40%
same,cells in S-phase,[1]; 2 h after release of block,50 to 60%
same,cells in G2 phase,[1]; after 8 h,50%
same,CDK-a %,CDK-a; [3],17.71%
same,CDK-a Band intensity,CDK-a; [3],321
same,CDK-a %,CDK-a; [4],37.87%
same,CDK-a Band intensity,CDK-a; [4],687
same,CDK-a %,CDK-a; [5],45.09%
same,CDK-a Band intensity,CDK-a; [5],818
same,CDK-a %,CDK-a; [6],66.22%
same,CDK-a Band intensity,CDK-a; [6],1202
same,CDK-a %,CDK-a; [7],58.06%
same,CDK-a Band intensity,CDK-a; [7],1054
same,CDK-a %,CDK-a; [8],77.44%
same,CDK-a Band intensity,CDK-a; [8],1406
same,CDK-a %,CDK-a; [9],80.20%
same,CDK-a Band intensity,CDK-a; [9],1456
same,CDK-a %,CDK-a; [10],92.43%
same,CDK-a Band intensity,CDK-a; [10],1678
same,CDK-a %,CDK-a; [11],79.03%
same,CDK-a Band intensity,CDK-a; [11],1435
same,CDK-a %,CDK-a; [12],100.0%
same,CDK-a Band intensity,CDK-a; [12],1816
same,CDK-a %,CDK-a; [13],89.25%
same,CDK-a Band intensity,CDK-a; [13],1620
same,CDK-a %,CDK-a; [14],53.55%
same,CDK-a Band intensity,CDK-a; [14],972
same,CDK-a %,CDK-a; [15],34.25%
same,CDK-a Band intensity,CDK-a; [15],621
same,CDK-a %,CDK-a; [16],40.96%
same,CDK-a Band intensity,CDK-a; [16],743
same,CDK-a %,CDK-a; [17],36.32%
same,CDK-a Band intensity,CDK-a; [17],659
same,CDK-a %,CDK-a; [18],29.30%
same,CDK-a Band intensity,CDK-a; [18],532
same,synchronisation by aphidicolin block/release,[2],could be synchronized in a similar way as non transgenic MM1 cell lines
same,CycD3 %,CycD3; [3],12.10%
same,CycD3 Band intensity,CycD3; [3],465
same,CycD3 %,CycD3; [4],14.46%
same,CycD3 Band intensity,CycD3; [4],555
same,CycD3 %,CycD3; [5],43.55%
same,CycD3 Band intensity,CycD3; [5],1674
same,CycD3 %,CycD3; [6],76.31%
same,CycD3 Band intensity,CycD3; [6],2933
same,CycD3 %,CycD3; [7],72.80%
same,CycD3 Band intensity,CycD3; [7],2798
same,CycD3 %,CycD3; [8],77.13%
same,CycD3 Band intensity,CycD3; [8],2964
same,CycD3 %,CycD3; [9],85.55%
same,CycD3 Band intensity,CycD3; [9],3288
same,CycD3 %,CycD3; [10],100.0%
same,CycD3 Band intensity,CycD3; [10],3844
same,CycD3 %,CycD3; [11],79.41%
same,CycD3 Band intensity,CycD3; [11],3052
same,CycD3 %,CycD3; [12],79.09%
same,CycD3 Band intensity,CycD3; [12],3040
same,CycD3 %,CycD3; [13],94.06%
same,CycD3 Band intensity,CycD3; [13],3615
same,CycD3 %,CycD3; [14],59.40%
same,CycD3 Band intensity,CycD3; [14],2283
same,CycD3 %,CycD3; [15],26.53%
same,CycD3 Band intensity,CycD3; [15],1019
same,CycD3 %,CycD3; [16],51.71%
same,CycD3 Band intensity,CycD3; [16],1987
same,CycD3 %,CycD3; [17],64.80%
same,CycD3 Band intensity,CycD3; [17],2490
same,CycD3 %,CycD3; [18],70.93%
same,CycD3 Band intensity,CycD3; [18],2726
